Reference: patent US20030203373A1 (priority 2002, published 2003)
pIC50: −log10 of the molar value. Several values for one entry are separate records, joined by “and”; a condition that tells them apart may be missing. Identical values can stand only once. Ends that are not written are not given here.

Molecular target: T1, ACE from pig kidney (Sus scrofa, UniProt F1RRW5)
T1 construct: 1 mU ACE from pig kidney (EC 3.4.15.1 (Sigma)); purchased Sigma; host or cells: pig kidney (tissue-derived enzyme)
T1 sequence (F1RRW5 34-1309): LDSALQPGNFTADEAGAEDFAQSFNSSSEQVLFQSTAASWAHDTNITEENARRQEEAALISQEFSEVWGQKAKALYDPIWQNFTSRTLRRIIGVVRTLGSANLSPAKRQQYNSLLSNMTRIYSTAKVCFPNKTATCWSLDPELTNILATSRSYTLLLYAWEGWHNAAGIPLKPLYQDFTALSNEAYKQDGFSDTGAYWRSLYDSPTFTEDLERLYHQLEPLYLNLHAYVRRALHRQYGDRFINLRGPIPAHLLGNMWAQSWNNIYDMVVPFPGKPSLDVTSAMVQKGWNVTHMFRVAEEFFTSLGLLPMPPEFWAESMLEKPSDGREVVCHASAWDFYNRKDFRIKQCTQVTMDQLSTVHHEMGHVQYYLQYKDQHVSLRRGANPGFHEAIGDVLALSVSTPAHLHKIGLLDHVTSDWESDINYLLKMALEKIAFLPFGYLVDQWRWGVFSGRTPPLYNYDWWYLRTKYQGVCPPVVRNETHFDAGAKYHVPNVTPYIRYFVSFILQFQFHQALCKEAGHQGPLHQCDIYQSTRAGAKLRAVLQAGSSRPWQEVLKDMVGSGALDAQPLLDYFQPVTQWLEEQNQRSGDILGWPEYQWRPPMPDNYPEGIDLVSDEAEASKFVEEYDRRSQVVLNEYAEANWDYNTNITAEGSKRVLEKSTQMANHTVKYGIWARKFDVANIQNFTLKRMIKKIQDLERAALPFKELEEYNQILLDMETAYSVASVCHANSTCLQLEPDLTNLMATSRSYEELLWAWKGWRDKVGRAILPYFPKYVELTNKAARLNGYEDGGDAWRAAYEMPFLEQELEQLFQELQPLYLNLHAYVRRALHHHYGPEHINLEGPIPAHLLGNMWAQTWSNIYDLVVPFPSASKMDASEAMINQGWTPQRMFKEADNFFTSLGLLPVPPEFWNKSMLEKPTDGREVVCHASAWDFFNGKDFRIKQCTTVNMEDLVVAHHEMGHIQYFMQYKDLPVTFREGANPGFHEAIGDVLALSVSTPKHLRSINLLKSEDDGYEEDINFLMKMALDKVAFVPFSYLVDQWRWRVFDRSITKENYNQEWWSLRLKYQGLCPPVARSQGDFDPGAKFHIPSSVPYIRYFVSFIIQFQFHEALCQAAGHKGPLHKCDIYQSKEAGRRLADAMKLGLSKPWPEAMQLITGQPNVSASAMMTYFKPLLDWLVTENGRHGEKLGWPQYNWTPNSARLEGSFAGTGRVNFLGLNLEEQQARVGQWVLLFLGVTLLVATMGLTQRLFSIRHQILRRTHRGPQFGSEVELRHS
Experiment: biochemical
Assay type: biochemical
Conditions: for pIC50: ACE from pig kidney, determined graphically, read-out: IC50-value (ACE inhibition)
Excerpt: These peptides were investigated for their inhibitory effect using an in vitro-ACE-inhibitor-assay with an angiotensin-converting-enzyme derived from pig kidney. Hippuryl-histidyl-leucin was used as a substrate. […] A concrete experimental description is given below.
The principle of the ACE-inhibition-assay was established by Chejung, H. S., Cushman, D. W.: “Inhibition of homogenous angiotensin converting enzyme of rabbit lung by synthetic venom peptides of Bothrops jararaca.” in Biochimica et Biophysica Acta 293, 451-563 (1973).
The assay was performed in 96 well HTRF-plates (Packard). The concentrations used for each well were:
1 mU ACE from pig kidney (EC 3.4.15.1 (Sigma)) in 30 μl of assay buffer (25 mM HEPES; 0,3 M NaCl, pH 8,2) and 20 μl inhibitor dissolved in assay buffer (0,35-200 μM). The reaction was started by adding 50 μl of 2 mM hippuryl-histidyl-leucin (Sigma) in assay buffer. The reaction was performed at room temperature (22° C.) for 30 minutes and terminated by adding 50 μl of 2 M NaOH. Afterwards 50 μl of 0,5% ortho-phtalaldehyd (Sigma) in methanol were added, 5 minutes later followed by 50 μl of 2,5 M HCl-solution to stabilize the developed fluorescence product.
The results were used to calculate the % inhibition. The IC50-values were determined graphically from a curve showing the dose-reaction ratio.
In order to minimize errors due to time-dependent differences, all pipetting steps were performed in a precise time schedule.

[1] = inhibitor 0.39 μM, replicates A-D
[2] = inhibitor 0.39 μM, replicates A-D, 0.39 µM
[3] = inhibitor 0.78125 μM, replicates A-D
[4] = inhibitor 0.78125 μM, replicates A-D, 0.78125 µM
[5] = inhibitor 1.5625 μM, replicates A-D
[6] = inhibitor 1.5625 μM, replicates A-D, 1.5625 µM
[7] = inhibitor 3.125 μM, replicates A-D
[8] = inhibitor 3.125 μM, replicates A-D, 3.125 µM
[9] = inhibitor 6.25 μM, replicates A-D
[10] = inhibitor 6.25 μM, replicates A-D, 6.25 µM
[11] = inhibitor 12.5 μM, replicates A-D
[12] = inhibitor 12.5 μM, replicates A-D, 12.5 µM
[13] = inhibitor 25 μM, replicates A-D
[14] = inhibitor 25 μM, replicates A-D, 25 µM
[15] = inhibitor 50 μM, replicates A-D
[16] = inhibitor 50 μM, replicates A-D, 50 µM
[17] = inhibitor 100 μM, replicates A-D
[18] = inhibitor 100 μM, replicates A-D, 100 µM
[19] = inhibitor 200 μM, replicates A-D
[20] = inhibitor 200 μM, replicates A-D, 200 µM

Sequence | pIC50 | fluorescence reading (ACE Inhibitor Assay) [1] | % inhibition (ACE Inhibitor Assay) [2] | fluorescence reading (ACE Inhibitor Assay) [3] | % inhibition (ACE Inhibitor Assay) [4] | fluorescence reading (ACE Inhibitor Assay) [5] | % inhibition (ACE Inhibitor Assay) [6] | fluorescence reading (ACE Inhibitor Assay) [7] | % inhibition (ACE Inhibitor Assay) [8] | fluorescence reading (ACE Inhibitor Assay) [9] | inhibition at 6.25 µM [9] | % inhibition (ACE Inhibitor Assay) [10] | fluorescence reading (ACE Inhibitor Assay) [11] | inhibition at 12.5 µM [11] | % inhibition (ACE Inhibitor Assay) [12] | fluorescence reading (ACE Inhibitor Assay) [13] | inhibition at 25 µM [13] | % inhibition (ACE Inhibitor Assay) [14] | fluorescence reading (ACE Inhibitor Assay) [15] | inhibition at 50 µM [15] | further results
AALSPLPEVPP [Peptide S494] | 5.05 | 704319 and 727603 and 762908 and 659968 | 2.56% and −0.67% and −5.59% and 8.74% | 643151 and 655606 and 667363 and 633619 | 9.35% and 7.71% and 12.41% | 602329 and 645065 and 664903 and 606137 | 16.77% and 10.82% and 8.05% and 16.23% | 563277 and 547546 and 579178 and 556345 | 24.4% and 20% and 23.17% | 420434 and 435365 and 427540 and 433344 | 42.1% | 40.02% and 41.11% and 40.3% | 312590 and 306320 and 319249 and 308116 | 57.1% | 57.99% and 56.19% and 57.74% | 193365 and 203903 and 204201 and 188693 | 73.7% | 72.26% and 72.21% and 74.38% | 119135 and 120732 and 124777 and 108988 | 84.1% | inhibition at 0.78125 µM [3]: 11.1%; inhibition at 3.125 µM [7]: 22.2%; % inhibition (ACE Inhibitor Assay) [16]: 83.84% and 83.28% and 85.48%; fluorescence reading (ACE Inhibitor Assay) [17]: 59914 and 62551 and 64312 and 57543; inhibition at 100 µM [17]: 92.3%; % inhibition (ACE Inhibitor Assay) [18]: 91.94% and 91.7% and 92.64%; fluorescence reading (ACE Inhibitor Assay) [19]: 34342 and 34053 and 34364 and 34738; inhibition at 200 µM [19]: 95.9%; % inhibition (ACE Inhibitor Assay) [20]: 95.91% and 95.82%
AGAALSPLPEVPP [Peptide S543] | 4.60 | 959059 and 985299 and 971597 and 996656 | 5.2% and 6.53% and 4.1% | 946496 and 913444 and 925926 and 981909 | 8.95% and 12.15% and 10.945% and 5.53% | 923507 and 888699 and 915925 and 980940 | 11.18% and 14.54% and 11.9% and 5.62% | 868636 and 880388 and 856283 and 938801 | 15.35% and 17.68% and 9.7% | 816251 and 788199 and 773151 and 833135 | 21.6% | 24.26% and 25.72% and 19.92% | 683603 and 714973 and 720213 and 700323 | 34.4% | 31.35% and 30.84% and 32.76% | 519515 and 531562 and 515233 and 534895 | 50.2% | 49.09% and 50.66% and 48.76% | 362416 and 357767 and 358975 and 367216 | 65.5% | inhibition at 0.39 µM [1]: 7.74%; inhibition at 3.125 µM [7]: 16.5%; % inhibition (ACE Inhibitor Assay) [16]: 65.9% and 65.78% and 64.98%; fluorescence reading (ACE Inhibitor Assay) [17]: 211437 and 206169 and 209393 and 219372; inhibition at 100 µM [17]: 80%; % inhibition (ACE Inhibitor Assay) [18]: 80.56% and 80.25% and 79.28%; fluorescence reading (ACE Inhibitor Assay) [19]: 107628 and 110019 and 108841 and 111945; inhibition at 200 µM [19]: 90.1%; % inhibition (ACE Inhibitor Assay) [20]: 89.95% and 89.97% and 89.67%
EAGAALSPLPEVPP [Peptide S542] | 4.42 | 930945 and 967806 and 1003456 and 906307 | 4.59% and 0.79% and −2.87% and 7.13% | 910838 and 902555 and 939597 and 880680 | 6.66% and 7.52% and 3.7% and 9.77% | 794214 and 874684 and 882788 and 794177 | 10.39% and 9.55% | 821478 and 820849 and 868901 and 796263 | 15.93% and 10.98% and 18.47% | 801078 and 799975 and 802324 and 795040 | 18% | 18.08% and 17.84% and 18.59% | 719799 and 744223 and 765229 and 709216 | 26.3% | 23.83% and 21.66% and 27.43% | 609106 and 591988 and 618193 and 569641 | 37.8% | 39.51% and 36.81% and 41.81% | 424530 and 419325 and 440093 and 406539 | 56.8% | inhibition at 1.5625 µM [5]: 18.7%; inhibition at 3.125 µM [7]: 15.9%; % inhibition (ACE Inhibitor Assay) [16]: 57.3% and 55.16% and 58.61%; fluorescence reading (ACE Inhibitor Assay) [17]: 273140 and 278465 and 286263 and 274375; inhibition at 100 µM [17]: 72.3%; % inhibition (ACE Inhibitor Assay) [18]: 71.8% and 71% and 72.23%; fluorescence reading (ACE Inhibitor Assay) [19]: 167517 and 173807 and 184836 and 169891; inhibition at 200 µM [19]: 83.2%; % inhibition (ACE Inhibitor Assay) [20]: 82.59% and 81.45% and 82.99%
GAALSPLPEVPP [Peptide S544] | 4.54 | 841511 and 894833 and 882762 and 936430 | 9.4% and 3.63% and 4.93% and −0.88% | 853374 and 881105 and 872351 and 929364 | 8.12% and 5.11% and 6.06% and −0.11% | 864708 and 811879 and 787983 and 930998 | 6.89% and 12.61% and 15.2% and −0.29% | 822128 and 840019 and 799408 and 883161 | 11.5% and 9.56% and 13.96% and 4.89% | 670407 and 719205 and 725919 and 735049 | 27.9% | 22.66% and 21.93% and 20.94% | 668628 and 658367 and 643614 and 684354 | 28.1% | 29.25% and 30.85% and 26.43% | 494831 and 495043 and 522915 and 521311 | 47% | 46.95% and 43.93% and 44.1% | 263679 and 261020 and 262784 and 286592 | 72% | % inhibition (ACE Inhibitor Assay) [16]: 72.3% and 72.12% and 69.54%; fluorescence reading (ACE Inhibitor Assay) [17]: 154967 and 152193 and 156501 and 158918; inhibition at 100 µM [17]: 83.8%; % inhibition (ACE Inhibitor Assay) [18]: 84.1% and 83.63% and 83.37%; fluorescence reading (ACE Inhibitor Assay) [19]: 92239 and 93028 and 95574 and 94363; inhibition at 200 µM [19]: 90.6%; % inhibition (ACE Inhibitor Assay) [20]: 90.51% and 90.23% and 90.34%
